Assay results: patent publication US9861642B2, “Methods for diagnosing and treating asthma” (The Children's Research Institute, priority 2010, dated 2018)

What was measured:
Format in all cases: cell-based
[1] = tested on: asthmatic primary differentiated human airway (bronchial) epithelia; assay: BrdU flow cytometry of mitotically active cells after scrape-wounding, asthmatic epithelia; conditions: wounded asthmatic epithelia, 20 nM 2 h pulses every 24 h, harvest +48 h, mean±SEM
Text: Normal (n=3) and asthmatic (n=6) primary differentiated human airway (i.e. bronchial) epithelia grown in 12-well plates on collagen-coated Transwell membrane inserts at an air-liquid interface were obtained commercially (#AIR-606 and #AIR-606-Asthma; MatTek Corporation, Ashland, Mass.). Donors underwent bronchoscopic brushing to acquire epithelial cells. Descriptive donor information provided by MatTek Corporation for the individuals from whom cells were obtained is shown in Table 1.
(§1) On arrival, the in vitro epithelia were washed with phosphate buffered saline (PBS) and the basal medium was replaced with proprietary defined medium supplied by the manufacturer. Cells were equilibrated at 37° C. and 5% CO2 for 16 h followed by medium replacement with identical proprietary medium lacking glucocorticoids and epidermal growth factor (EGF). This condition was maintained for an additional 22 h. […]
(§2) An in vitro epithelial injury model that allows for the study of epithelial repair processes in the lung was adapted for use in this study. […] In some experiments, wounds were imaged daily (i.e. 0, +24, +48 h) using a 16× phase contrast objective lens and wound area was measured in triplicate by a single operator blinded to the culture conditions using ImageJ Software (Rasband. ImageJ. Bethesda, Md., USA: U. S. National Institutes of Health; 1997-2009). […]

[2] = tested on: asthmatic primary differentiated human airway epithelia; assay: Flow cytometric cell cycle analysis (7-AAD) of BrdU+ cells from wounded asthmatic epithelia; conditions: Example 2, wounded asthmatic epithelia, 2 h pulses at -26, -2, +22, +46 h
Procedure: (§3) On arrival, the in vitro epithelia were washed with phosphate buffered saline (PBS) and the basal medium was replaced with proprietary defined medium supplied by the manufacturer. Cells were equilibrated at 37° C. and 5% CO2 for 16 h followed by medium replacement with identical proprietary medium lacking glucocorticoids and epidermal growth factor (EGF). This condition was maintained for an additional 22 h. Upon completion (i.e. −26 h on the experimental timeline shown in FIG. 1, intermittent glucocorticoid exposures began: Dexamethasone (DEX) (20 nM) or PBS vehicle (VEH) was added to the apical and basolateral epithelial surfaces for 2 h. At −24 h, the medium was replaced with glucocorticoid- and EGF-free medium. This two-hour DEX/VEH pulse was repeated every 24 h (i.e. at −2, +22, and +46 h) thereafter until cell harvest at +48 h.
An in vitro epithelial injury model that allows for the study of epithelial repair processes in the lung was adapted for use in this study. Briefly, at 0 h on the timeline in FIG. 1, epithelia were scraped in two perpendicular lines with a p1000 pipette tip and placed in bromodeoxyuridine (BrdU)-containing (10 μM) medium. BrdU-containing medium was changed at +24 h following the DEX/VEH pulse mentioned previously. Epithelia were incubated at 37° C. and 5% CO2 until +48 h. In some experiments, wounds were imaged daily (i.e. 0, +24, +48 h) using a 16× phase contrast objective lens and wound area was measured in triplicate by a single operator blinded to the culture conditions using ImageJ Software (Rasband. ImageJ. Bethesda, Md., USA: U. S. National Institutes of Health; 1997-2009). Contrast was enhanced equally in all images to improve wound visualization.
Epithelia were washed once with PBS and harvested at +48 h (FIG. 1) for analysis by flow cytometry. A single cell suspension was achieved by exposure for 5 minutes with trypsin-ethylenediaminetetraacetic acid (EDTA) solution (#T3924; Sigma-Aldrich, St. Louis, Mo.) followed by filtration through a 40 μm strainer. Cells were simultaneously labeled with the following according to the manufacturers' protocols: 1) Carboxyfluorescein FLICA Apoptosis Poly-Caspase Detection Kit (Immunochemistry Technologies, LLC, Bloomington, Minn.) and 2) APC BrdU Flow Kit containing 7-AAD (amino-actinomycin-D) (BD Biosciences, San Jose, Calif.). Flow cytometry data were generated on a FACSCalibur™ System (BD Biosciences). Samples were gated to study 7-AAD content in BrdU^+FLICA^− cells. Data were analyzed by means of the cell cycle analysis feature of FlowJo 7.6 (Tree Star, Inc., Ashland, Oreg.) using a Watson (Pragmatic) model with equal coefficients of variation for the G1/G0 and G2/M peaks
Human fully-differentiated (air-liquid interface) normal (n=3) and asthmatic (n=3) primary airway epithelia, lacking inflammatory cells, were cultured in glucocorticoid-free medium beginning at −48 h. The cells were pulsed with mitotic cell cycle synchrony-inducing (i.e. dexamethasone, simvastatin) compounds or vehicle for 2 h at −26, −2, +22, and +46 h. Cultures were mechanically scrape-wounded at 0 h and thereafter exposed continuously to bromodeoxyuridine (BrdU) to identify mitotically active cells.

[3] = tested on: normal primary differentiated human airway epithelia; assay: Flow cytometric cell cycle analysis (7-AAD) of BrdU+ cells from wounded normal epithelia; conditions: with pulse DEX, +48 h
Procedure: as §1, §2
Epithelia were washed once with PBS and harvested at +48 h (FIG. 1) for analysis by flow cytometry. […] Data were analyzed by means of the cell cycle analysis feature of FlowJo 7.6 (Tree Star, Inc., Ashland, Oreg.) using a Watson (Pragmatic) model with equal coefficients of variation for the G1/G0 and G2/M peaks

[4] = tested on: asthmatic primary differentiated human airway epithelia; assay: Mechanical scrape-wound healing (wound area, ImageJ), asthmatic epithelia; conditions: 20 nM 2 h pulses every 24 h
Procedure: as §3, §2

[5] = tested on: normal primary differentiated human airway epithelia; assay: Mechanical scrape-wound healing (wound area, ImageJ), normal epithelia; conditions: 20 nM 2 h pulses every 24 h
Procedure: as §3, §2

Compound | BrdU+ cells, % of total cells [1] | BrdU+ cells in G1/G0 [2] | BrdU+ cells in G2/M [2] | BrdU+ cells in S [2] | BrdU+ cells in G1/G0 [3] | wound area decrease from 0 to +48 h [4] | wound area decrease from 0 to +48 h [5]
C[C@@H]1C[C@H]2[C@@H]3CCC4=CC(=O)C=C[C@]4(C)[C@@]3(F)[C@@H](O)C[C@]2(C)[C@@]1(O)C(=O)CO [DEX, Dexamethasone] | 0.55±0.13% | 72±5% | 20±4% | 8±2% | > 70% | 75.7±9% | 86.8±5.4%
CCC(C)(C)C(=O)O[C@H]1C[C@@H](C)C=C2C=C[C@H](C)[C@H](CC[C@@H]3C[C@@H](O)CC(=O)O3)[C@H]21 [simvastatin] |  | 75±6% | 14±3% | 11±4% |  |  | 
